How the values were obtained:
Type in all cases: in vivo, rat
[1] = test system: myocardial infarction in adult rats; test: Scar volume (trichrome stain) after myocardial infarction
Experimental: (§1) To determine whether p38 inhibition/FGF1 stimulation can induce cardiomyocyte proliferation in vivo and whether it has a positive effect on cardiac function after cardiac injury we created myocardial infarctions (MI) in adult rats (250 g) by coronary artery ligation. The p38 inhibitor SB203580 HCl or its vehicle, saline, were injected intraperitoneal every three days for the first month of the study. FGF1 or its carrier BSA was injected mixed with self-assembling peptides once into the infarct border zone immediately after coronary artery ligation. We injecting a total of 80 μl of 400 ng/ml FGF1, given at 3 different injection sites, into 400 mg of infarcted myocardium estimated to deliver a FGF 1 concentration to the cardiomyocytes of approximately 50 to 100 ng/ml. Animals were analyzed 24 hours, 2 weeks, and 3 month after surgery. […]
To determine if p38 inhibition and FGF1 stimulation have an effect on infarct size we determined scar volume using trichrome stain. […]
Scar formation was determined as fibrotic area/(fibrotic+non-fibrotic area) based on all sections. The thinning index is a ratio of the amount of wall thinning in the infarct normalized to the thickness of the septum and is calculated by dividing the minimal infarct wall thickness with maximal septal wall thickness (2 weeks: section 1 to 4, 3 month: section 1 to 6 from base).

[2] = test system: myocardial infarction in adult rats; test: Vessel density in the scar area after myocardial infarction; settings: rats after MI
Experimental: as §1
One possible explanation is the angiogenic effect of FGF1. To determine the effect of our treatments on vascularization we determined the vessel density in the scar area. […]
Hearts were embedded in tissue-freezing medium (Fisher) without fixation, frozen in 2-methylbutane (cooled in liquid nitrogen), stored at −80° C., and finally sectioned (20 μm; Leica 3050S). […] Immune complexes were detected with ALEXA 488-, or ALEXA 594-conjugated secondary antibodies (1:400; Molecular Probes). […]

[3] = test system: myocardial infarction in adult rats; test: Fractional shortening (echocardiography) after myocardial infarction
Experimental: The p38 inhibitors were tested for in vivo effect following myocardial infarct. For the evaluation of left ventricular function, transthoracic echocardiogram can be performed on the rats after myocardial infarction 1 day or 14 days right. Rats can be anesthetized with 4-5% isoflurane in an induction chamber. The chest can be shaved, and the rats can be placed in dorsal decubitus position and intubated for continuous ventilation. 1-2% isoflurane can be continuously supplied via a mask. 3 electrodes can be adhered to their paws to record the electrocardiographic tracing simultaneously with the cardiac image identifying the phase of a cardiac cycle.
Echocardiograms can be performed with a commercially available echocardiography system equipped with 7.5 MHz phased-array transducer (Philips-Hewlett-Packard). The transducer can be positioned on the left anterior side of the chest. Longitudinal images of the heart can be obtained, including the left ventricle, atrium, the mitral valve and the aorta, followed by the cross-sectional images from the plane of the base to the left ventricular apical region. M-mode tracings can be obtained at the level below the tip of the mitral valve leaflets at the level of the papillary muscles. Fractional shorting (FS) can be calculated as a measure of systolic function, according to the M-mode tracing from the cross-sectional view: maximal LV end-diastolic diameter (at the time of maximal cavity dimension), minimal LV end-systolic diameter (at the time of maximum anterior motion of the posterior wall), FS (%)={(LVEDD−LVESD)/LVEDD}×100.
To determine whether p38 inhibition/FGF1 stimulation can induce cardiomyocyte proliferation in vivo and whether it has a positive effect on cardiac function after cardiac injury we created myocardial infarctions (MI) in adult rats (250 g) by coronary artery ligation. The p38 inhibitor SB203580 HCl or its vehicle, saline, were injected intraperitoneal every three days for the first month of the study. FGF1 or its carrier BSA was injected mixed with self-assembling peptides once into the infarct border zone immediately after coronary artery ligation. We injecting a total of 80 μl of 400 ng/ml FGF1, given at 3 different injection sites, into 400 mg of infarcted myocardium estimated to deliver a FGF 1 concentration to the cardiomyocytes of approximately 50 to 100 ng/ml. Animals were analyzed 24 hours, 2 weeks, and 3 month after surgery. We performed two blinded and randomized studies using 62 rats for the 2 week and 61 rats for the 3 month experiment, with at least 10 animals in each experimental group. Animals were treated with saline plus BSA (control), SB203580 HCl plus BSA (p38i), saline plus FGF1 (FGF1), or SB203580 HCl plus FGF1 (p38i/FGF1).
Animal experiments were performed in accordance with guidelines of Children's Hospital in Boston and were approved by the Harvard Medical School Standing Committee on Animals. Myocardial infarction (MI) was produced in ˜250 gm male Sprague-Dawley rats (Charles River and Harlan) as described previously (Hsieh et al., 2006). Briefly, rats were anesthetized by pentobarbital and, following tracheal intubation, the hearts were exposed via left thoracotomy. The left coronary artery was identified after pericardiotomy and was ligated by suturing with 6-0 prolene at the location ˜3mm below the left atrial appendix. For the sham operation, suturing was performed without ligation. […]

With FGF1: growth factor FGF1 (R&D Systems) the “scar size (scar volume)” value ([1]; 2 weeks) was “significantly reduced”, the “scar size (scar volume)” value ([1]; 3 month) was “significantly reduced” and the “vessel density in the scar area” value [2] was “increases significantly”. For the same substance, the “improvement of fractional shortening” value ([3]; 3 month after infarction) was “maintained”, the “left ventricular fractional shortening” value ([3]; 24 hours after MI) was “significantly improved” and the “improvement of fractional shortening” value ([3]; day 14 after infarction) was “maintained”.

— patent US20060281791A1, “Methods of increasing proliferation of adult mammalian cardiomyocytes through p38 map kinase inhibition” (CHILDREN'S MEDICAL CENTER CORPORATION, priority 2005, published 2006)
